Measured values taken from ChEMBL document CHEMBL4368907 (J Med Chem, 2019).
Numbered stars: 1 amine (or outer) side, 2 acyl side, 3 side chain; on linkers, the order of the positions; unused ones are H or OH. Square brackets hold non-standard residues; d marks the D form. Side chains are listed from the residue outwards. Peptide text beside a SMILES is read from it. * marks the point of attachment. Phe(4-CH2SO3H) = N[C@@H](Cc1ccc(CS(=O)(=O)O)cc1)C(=O)O; sY = N[C@@H](Cc1ccc(OS(=O)(=O)O)cc1)C(=O)O; C18 diacid = O=C(O)CCCCCCCCCCCCCCCCC(=O)*; γGlu = O=C(O)[C@H](CCC(=O)[*:2])N[*:1]; βAsp = O=C(O)[C@H](CC(=O)[*:2])N[*:1]; NMeF = CN[C@@H](Cc1ccccc1)C(=O)O; NMeD = CN[C@@H](CC(=O)O)C(=O)O; dNMeD = CN[C@H](CC(=O)O)C(=O)O; Nle = CCCC[C@H](N)C(=O)O; X1 = O=C(Cc1ccc(O)cc1)*; AEEA = NCCOCCOCC(=O)O

Assays:
[1] = Drug level in Ellegaard Gottingen minipig plasma treated with C18d-gammaGlu-(OEG)2-Asp-Phe(4sm)-Nle-Gly-Trp-Nle-DMeAspMePhe-NH2 at 5 nmol/kg, iv administered as single dose by LC-MS/MS analysis; type: ADME, organism-based, Sus scrofa; details: pig, in vivo
[2] = Terminal half life in Ellegaard Gottingen minipig at 5 nmol/kg, iv by LC-MS/MS analysis; type: ADME, organism-based, Sus scrofa; details: pig, in vivo, read-out: beta t1/2 (converted)
[3] = Plasma concentration in lean Landrace Yorkshire Duroc pig at 30 nmol/kg, sc measured after 96 hrs post dose; type: ADME, organism-based, Sus scrofa
[4] = biological target: T1, Gastrin/cholecystokinin type B receptor (Homo sapiens, UniProt P32239); assay: Displacement of [125I]-CCK-8 from human CCK2R expressed in human 1321N1 cell membranes after 2 hrs by SPA assay
T1 sequence (P32239 whole entry): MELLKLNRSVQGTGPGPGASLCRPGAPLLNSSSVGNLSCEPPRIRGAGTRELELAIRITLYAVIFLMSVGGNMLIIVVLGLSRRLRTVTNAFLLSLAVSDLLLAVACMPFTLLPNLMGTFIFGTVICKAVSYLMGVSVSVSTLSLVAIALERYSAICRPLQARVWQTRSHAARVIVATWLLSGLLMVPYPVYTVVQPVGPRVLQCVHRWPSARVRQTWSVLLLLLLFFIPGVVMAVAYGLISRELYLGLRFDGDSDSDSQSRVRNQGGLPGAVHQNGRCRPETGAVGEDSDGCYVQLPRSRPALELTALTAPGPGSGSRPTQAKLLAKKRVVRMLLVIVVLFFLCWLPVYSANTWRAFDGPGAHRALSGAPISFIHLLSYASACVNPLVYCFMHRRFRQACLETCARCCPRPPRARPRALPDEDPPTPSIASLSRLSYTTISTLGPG

[5] = Toxicity in lean Landrace Yorkshire Duroc pig at 30 nmol/kg, sc measured up to 96 hrs post dose; type: organism-based, Sus scrofa; details: in vivo
[6] = biological target: T2, Cholecystokinin receptor type A (Homo sapiens, UniProt P32238); assay: Agonist activity at human CCK1R expressed in human 1321N1 cells assessed as IP1 accumulation after 1 hr by HTRF assay; type: functional, cell-based
T2 sequence (P32238 whole entry): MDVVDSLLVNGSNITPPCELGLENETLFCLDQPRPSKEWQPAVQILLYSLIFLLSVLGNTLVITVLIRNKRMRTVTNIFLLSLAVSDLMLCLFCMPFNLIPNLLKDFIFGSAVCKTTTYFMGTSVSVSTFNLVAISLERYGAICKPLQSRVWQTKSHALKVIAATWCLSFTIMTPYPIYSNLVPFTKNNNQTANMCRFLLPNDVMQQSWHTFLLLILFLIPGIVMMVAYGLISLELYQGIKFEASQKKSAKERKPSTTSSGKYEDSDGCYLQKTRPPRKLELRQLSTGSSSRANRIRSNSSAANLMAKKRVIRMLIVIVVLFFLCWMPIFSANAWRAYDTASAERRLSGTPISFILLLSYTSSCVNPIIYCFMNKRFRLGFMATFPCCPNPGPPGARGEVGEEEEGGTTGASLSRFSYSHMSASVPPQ

[7] = biological target: T1, Gastrin/cholecystokinin type B receptor; assay: Agonist activity at human CCK2R expressed in human 1321N1 cells assessed as IP1 accumulation after 1 hr by HTRF assay; type: functional, cell-based
[8] = biological target: T2, Cholecystokinin receptor type A; assay: Displacement of [125I]-CCK-8 from human CCK1R expressed in human 1321N1 cell membranes after 2 hrs by SPA assay
Sus scrofa [9] = assay: Anti-obesity activity in lean Landrace Yorkshire Duroc pig assessed as food intake at 30 nmol/kg, sc measured up to 24 hrs post dose (reference value: 1.8 to 2.1 kg); type: functional
Sus scrofa [10] = assay: Anti-obesity activity in lean Landrace Yorkshire Duroc pig assessed as food intake at 30 nmol/kg, sc measured at 48 to 72 hrs post dose (reference value: 1.8 to 2.1 kg); type: functional
Sus scrofa [11] = assay: Anti-obesity activity in lean Landrace Yorkshire Duroc pig assessed as food intake at 30 nmol/kg, sc measured at 24 to 48 hrs post dose (reference value: 1.8 to 2.1 kg); type: functional
Sus scrofa [12] = assay: Anti-obesity activity in lean Landrace Yorkshire Duroc pig assessed as food intake at 30 nmol/kg, sc measured at 72 to 96 hrs post dose (reference value: 1.8 to 2.1 kg); type: functional
[13] = Drug level in sodium phosphate buffer treated with 1 mM (2R,5S,8S,14S,17S,20S,43S)-8-((1H-indol-3-yl)methyl)-2-(((S)-1-amino-1-oxo-3-phenylpropan-2-yl)(methyl)carbamoyl)-5,14-dibutyl-20-(carboxymethyl)-3-methyl-4,7,10,13,16,19,22,31,40,45-decaoxo-17-(4-(sulfomethyl)benzyl)-24,27,33,36-tetraoxa-3,6,9,12,15,18,21,30,39,44-decaazahenhexacontane-1,43,61-tricarboxylic acid assessed as compound formation at pH 7.4 at 37 degC after 1 to 2 weeks by UHLPC-UV analysis; type: physicochemical

O=C(O)CCCCCCCCCCCCCCCCC(=O)N[C@@H](CCC(=O)NCCOCCOCC(=O)NCCOCCOCC(=O)N[C@@H](CC(=O)O)C(=O)N[C@@H](Cc1ccc(CS(=O)(=O)O)cc1)C(=O)O)C(=O)O
Drug uptake [1]: Active

CCCC[C@H](NC(=O)[C@H](Cc1c[nH]c2ccccc12)NC(=O)CNC(=O)[C@H](CC(C)C)NC(=O)[C@H](Cc1ccc(O)cc1)NC(=O)[C@H](CC(=O)O)NC(=O)COCCOCCNC(=O)COCCOCCNC(=O)CC[C@H](NC(=O)CCCCCCCCCCCCCCCCC(=O)O)C(=O)O)C(=O)N(C)[C@@H](CC(=O)O)C(=O)N(C)[C@@H](Cc1ccccc1)C(N)=O [listing 1 of 2 here]
half-life [2]: 45 h | concentration at 96 h [3]: 8.5 nM | pIC50 [4]: 5.31 | Activity [5]: Non-Toxic | pEC50 [6]: 9.81 | pEC50 [7]: < 6 | pIC50 [8]: 8.99

CCCC[C@H](NC(=O)[C@H](Cc1c[nH]c2ccccc12)NC(=O)CNC(=O)[C@H](CC(C)C)NC(=O)[C@H](Cc1ccc(O)cc1)NC(=O)[C@H](CC(=O)O)NC(=O)COCCOCCNC(=O)COCCOCCNC(=O)CC[C@H](NC(=O)CCCCCCCCCCCCCCCCC(=O)O)C(=O)O)C(=O)N(C)[C@@H](CC(=O)O)C(=O)N(C)[C@@H](Cc1ccccc1)C(N)=O [listing 2 of 2 here]
Activity (Sus scrofa [9]): 2.3 kg | Activity (Sus scrofa [10]): 2.6 kg | Activity (Sus scrofa [11]): 2.2 kg | Activity (Sus scrofa [12]): 2.3 kg

CCCC[C@H](NC(=O)[C@H](Cc1c[nH]c2ccccc12)NC(=O)CNC(=O)[C@H](CCCCNC(=O)COCCOCCNC(=O)COCCOCCNC(=O)CC[C@H](NC(=O)CCCCCCCCCCCCCCCCC(=O)O)C(=O)O)NC(=O)Cc1ccc(O)cc1)C(=O)N(C)[C@@H](CC(=O)O)C(=O)N(C)[C@@H](Cc1ccccc1)C(N)=O (X1-K([AEEA-AEEA-γGlu-C18 diacid])GW[Nle][NMeD][NMeF]-NH2) [listing 1 of 2 here]
half-life [2]: 7.1 h | concentration at 96 h [3]: < 0.9 nM | pIC50 [4]: 5.43 | Activity [5]: Non-Toxic | pEC50 [6]: 9.8 | pEC50 [7]: < 6 | pIC50 [8]: 9.28

CCCC[C@H](NC(=O)[C@H](Cc1c[nH]c2ccccc12)NC(=O)CNC(=O)[C@H](CCCCNC(=O)COCCOCCNC(=O)COCCOCCNC(=O)CC[C@H](NC(=O)CCCCCCCCCCCCCCCCC(=O)O)C(=O)O)NC(=O)Cc1ccc(O)cc1)C(=O)N(C)[C@@H](CC(=O)O)C(=O)N(C)[C@@H](Cc1ccccc1)C(N)=O (X1-K([AEEA-AEEA-γGlu-C18 diacid])GW[Nle][NMeD][NMeF]-NH2) [listing 2 of 2 here]
Activity (Sus scrofa [9]): 2.1 kg | Activity (Sus scrofa [10]): 2.1 kg | Activity (Sus scrofa [11]): 2.2 kg | Activity (Sus scrofa [12]): 2.4 kg

CCCC[C@H](NC(=O)[C@H](Cc1ccc(CS(=O)(=O)O)cc1)NC(=O)C[C@H](NC(=O)COCCOCCNC(=O)COCCOCCNC(=O)CC[C@H](NC(=O)CCCCCCCCCCCCCCCCC(=O)O)C(=O)O)C(=O)O)C(=O)NCC(=O)N[C@@H](Cc1c[nH]c2ccccc12)C(=O)N[C@@H](CCCC)C(=O)N(C)[C@H](CC(=O)O)C(=O)N(C)[C@@H](Cc1ccccc1)C(N)=O ({C18 diacid-γGlu-AEEA-AEEA-βAsp}-[Phe(4-CH2SO3H)][Nle]GW[Nle][dNMeD][NMeF]-NH2)
half-life [2]: 106 h | concentration at 96 h [3]: 88.7 nM | Activity (Sus scrofa [9]): 1.1 kg | Activity [5]: Non-Toxic | Activity (Sus scrofa [10]): 1.8 kg | Drug uptake [13]: Active | EC50 [6]: 0.316 nM | IC50 [8]: 0.0794 nM | Activity (Sus scrofa [11]): 1.5 kg | Activity (Sus scrofa [12]): 1.7 kg

CCCC[C@H](NC(=O)[C@H](Cc1ccc(CS(=O)(=O)O)cc1)NC(=O)[C@H](CC(=O)O)NC(=O)COCCOCCNC(=O)COCCOCCNC(=O)CC[C@H](NC(=O)CCCCCCCCCCCCCCCCC(=O)O)C(=O)O)C(=O)NCC(=O)O ({C18 diacid-γGlu-AEEA-AEEA}-D[Phe(4-CH2SO3H)][Nle]G-OH)
Drug uptake [1]: Active

CCCC[C@H](NC(=O)[C@H](Cc1ccc(CS(=O)(=O)O)cc1)NC(=O)[C@H](CC(=O)O)NC(=O)COCCOCCNC(=O)COCCOCCNC(=O)CC[C@H](NC(=O)CCCCCCCCCCCCCCCCC(=O)O)C(=O)O)C(=O)NCC(=O)N[C@@H](Cc1c[nH]c2ccccc12)C(=O)N[C@@H](CCCC)C(=O)N(C)[C@@H](CC(=O)O)C(=O)O ({C18 diacid-γGlu-AEEA-AEEA}-D[Phe(4-CH2SO3H)][Nle]GW[Nle][NMeD]-OH)
Drug uptake [1]: Active

CCCC[C@H](NC(=O)[C@H](Cc1ccc(CS(=O)(=O)O)cc1)NC(=O)[C@H](CC(=O)O)NC(=O)COCCOCCNC(=O)COCCOCCNC(=O)CC[C@H](NC(=O)CCCCCCCCCCCCCCCCC(=O)O)C(=O)O)C(=O)NCC(=O)N[C@@H](Cc1c[nH]c2ccccc12)C(=O)N[C@@H](CCCC)C(=O)N(C)[C@@H](CC(=O)O)C(=O)N(C)[C@@H](Cc1ccccc1)C(N)=O ({C18 diacid-γGlu-AEEA-AEEA}-D[Phe(4-CH2SO3H)][Nle]GW[Nle][NMeD][NMeF]-NH2)
concentration at 96 h [3]: 93.9 nM | Activity (Sus scrofa [9]): 1.9 kg | IC50 [4]: 8710 nM | Activity [5]: Non-Toxic | Activity (Sus scrofa [10]): 2.3 kg | EC50 [6]: 0.107 nM | EC50 [7]: > 1000 nM | IC50 [8]: 0.316 nM | Activity (Sus scrofa [11]): 2 kg | Activity (Sus scrofa [12]): 2.2 kg

CC(C)C[C@H](NC(=O)[C@H](Cc1ccc(OS(=O)(=O)O)cc1)NC(=O)[C@H](CC(=O)O)NC(=O)COCCOCCNC(=O)COCCOCCNC(=O)CC[C@H](NC(=O)CCCCCCCCCCCCCCCCC(=O)O)C(=O)O)C(=O)NCC(=O)N[C@@H](Cc1c[nH]c2ccccc12)C(=O)N[C@@H](CCC(N)=O)C(=O)N(C)[C@H](CC(=O)O)C(=O)N(C)[C@@H](Cc1ccccc1)C(N)=O ({C18 diacid-γGlu-AEEA-AEEA}-D[sY]LGWQ[dNMeD][NMeF]-NH2)
concentration at 96 h [3]: 91.2 nM | Activity (Sus scrofa [9]): 1.4 kg | Activity [5]: Non-Toxic | Activity (Sus scrofa [10]): 1.8 kg | EC50 [6]: 0.135 nM | Activity (Sus scrofa [11]): 1.3 kg | Activity (Sus scrofa [12]): 1.8 kg

CCCC[C@H](NC(=O)[C@H](Cc1ccc(CS(=O)(=O)O)cc1)NC(=O)[C@H](CC(=O)O)NC(=O)COCCOCCNC(=O)[C@H](CCCCN)NC(=O)COCCOCCNC(=O)COCCOCCNC(=O)CC[C@H](NC(=O)CCCCCCCCCCCCCCCCC(=O)O)C(=O)O)C(=O)NCC(=O)N[C@@H](Cc1c[nH]c2ccccc12)C(=O)N[C@@H](CCCC)C(=O)N(C)[C@H](CC(=O)O)C(=O)N(C)[C@@H](Cc1ccccc1)C(N)=O ({C18 diacid-γGlu-AEEA-AEEA}-K[AEEA]D[Phe(4-CH2SO3H)][Nle]GW[Nle][dNMeD][NMeF]-NH2)
concentration at 96 h [3]: 8.8 nM | Activity (Sus scrofa [9]): 0.9 kg | IC50 [4]: 129 nM | Activity [5]: Non-Toxic | Activity (Sus scrofa [10]): 1.6 kg | EC50 [6]: 0.214 nM | IC50 [8]: 0.0631 nM | Activity (Sus scrofa [11]): 1.2 kg | Activity (Sus scrofa [12]): 1.8 kg
